Columns and labels:
[1] = target: E. coli thioredoxin reductase (TrxR) (Escherichia coli, UniProt P0A9P4); settings: read-out: IC50 TrxR from E. coli; ± standard deviation, n = 3, 75 min preincubation
Protocol: (§2) The inhibition of purified E. coli thioredoxin reductase (TrxR) and glutathione reductase (GR) from both E. coli and baker’s yeast was determined according to a previously applied procedure.[59],[60]
(§3) The TrxR (E. coli) and GR (baker’s yeast and E. coli) inhibition assays were performed according to previously published procedures.[62],[75] The assays are partly based on the procedure developed by Lu et al.[60] and make use of the reduction of 5,5′-dithiobis(2-nitrobenzoic acid) (DTNB). Solutions of E. coli TrxR (35.4 U/mL) and E. coli thioredoxin (Trx) (156 μg/mL) (both purchased from Sigma-Aldrich) or baker’s yeast GR (0,08 U/mL, Sigma-Aldrich) or E. coli GR (4.2 U/ml, Antibodies online) and GSSG (0.28 mM, Sigma-Aldrich) in distilled water were prepared, as were fresh 2 mM stock solutions of the test compounds in DMSO. Then, solutions with several concentrations of the test compounds in DMSO were prepared, and 35 μL of each solution was diluted with 965 μL of TE buffer (Tris–HCl 50 mM, EDTA 1 mM, pH 7.5). These solutions (20 μL) or TE buffer without the test compounds (20 μL, as control) were mixed with the TrxR or GR solutions (10 μL), the Trx or GSSG solutions (10 μL), and a solution of NADPH (200 μM) in TE buffer (100 μL) in a well on a 96-well plate. As a blank solution, 200 μM NADPH in TE buffer (100 μL) mixed with a DMSO/buffer mixture (40 μL) was used (final concentrations of DMSO: 0.5% v/v). The plate was incubated for 75 min at 25 °C with moderate shaking. After incubation, 100 μL of a reaction mixture (TE buffer containing 200 μM NADPH and 5 mM DTNB) was added to each well to initiate the reaction. After thorough mixing, the formation of 5-TNB was monitored by a microplate reader at 405 nm in 35 s intervals (10 measurements). The values were corrected by subtraction of the blank solution absorption values. The increase in the concentration of 5-TNB followed a linear trend (r^2 ≥ 0.990), and the enzymatic activities were calculated as the gradients (increase in absorbance per second) thereof. […] The inhibition is presented as the mean IC50 values and standard deviations obtained in three independent experiments.

[2] = target: T1, glutathione reductase (GR) from baker's yeast (Saccharomyces cerevisiae, UniProt P41921); test: GR inhibition assay (DTNB reduction); type: biochemical; settings: ± standard deviation, n = 3, 75 min preincubation
T1 construct: purchased Sigma-Aldrich
T1 sequence (P41921 17-483 limits assumed): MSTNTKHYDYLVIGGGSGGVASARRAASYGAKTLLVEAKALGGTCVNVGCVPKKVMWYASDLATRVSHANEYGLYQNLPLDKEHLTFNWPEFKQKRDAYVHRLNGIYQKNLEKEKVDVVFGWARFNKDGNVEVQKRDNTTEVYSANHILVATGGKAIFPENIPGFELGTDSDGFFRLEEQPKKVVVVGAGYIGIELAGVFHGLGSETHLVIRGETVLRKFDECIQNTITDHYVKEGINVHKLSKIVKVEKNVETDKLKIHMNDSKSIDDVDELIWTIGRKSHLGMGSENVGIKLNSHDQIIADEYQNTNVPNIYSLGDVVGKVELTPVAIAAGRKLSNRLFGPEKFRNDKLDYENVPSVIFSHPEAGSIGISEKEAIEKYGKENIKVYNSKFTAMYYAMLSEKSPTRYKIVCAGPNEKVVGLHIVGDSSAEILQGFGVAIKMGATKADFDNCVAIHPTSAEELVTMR
Protocol: as §2, §3

[3] = test system: E. faecium (DSM 20477, ATCC 19434); test: Broth microdilution antibacterial assay; type: cell-based, Enterococcus faecium; settings: n = 3, TSY
Summary of the method: (§1)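 Broth microdilution used 2–8 × 10^5 CFU/mL inocula, with compounds serially diluted 64 to 1 μg/mL and incubated 22 h at 37 °C, read at 600 nm. A. baumannii, K. pneumoniae and P. aeruginosa were grown in MHB pH 7.4; E. faecium was grown in TSY pH 7.0–7.2. MIC and EC50 were obtained by curve fitting from three independent experiments.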

[4] = Conductometry: molar conductivity of silver complexes in DMSO; type: physicochemical; settings: 1.0 mM in DMSO, calculated as monocarbene (NHC)AgX
Summary of the method: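 Molar conductivity of each silver complex was measured at 1.0 mM in freshly distilled DMSO (specific conductivity ≤3 × 10^–8 S cm^–1) using an Apera Instruments EC9500 conductivity meter at 25 ± 2 °C. AgNO3 served as the 1:1 electrolyte reference, and readings were taken after dissolution to distinguish neutral monocarbene from ionic biscarbene forms.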

[5] = test system: A. baumannii (DSM 30007, ATCC 19606); test: Broth microdilution antibacterial assay; type: cell-based, Acinetobacter baumannii; settings: n = 3, MHB
Summary of the method: as §1

[6] = target: T2, glutathione reductase (GR) from E. coli (Escherichia coli, UniProt P06715); test: GR inhibition assay (DTNB reduction); type: biochemical; settings: ± standard deviation, n = 3, 75 min preincubation
T2 construct: purchased Antibodies online
T2 sequence (P06715 1-450): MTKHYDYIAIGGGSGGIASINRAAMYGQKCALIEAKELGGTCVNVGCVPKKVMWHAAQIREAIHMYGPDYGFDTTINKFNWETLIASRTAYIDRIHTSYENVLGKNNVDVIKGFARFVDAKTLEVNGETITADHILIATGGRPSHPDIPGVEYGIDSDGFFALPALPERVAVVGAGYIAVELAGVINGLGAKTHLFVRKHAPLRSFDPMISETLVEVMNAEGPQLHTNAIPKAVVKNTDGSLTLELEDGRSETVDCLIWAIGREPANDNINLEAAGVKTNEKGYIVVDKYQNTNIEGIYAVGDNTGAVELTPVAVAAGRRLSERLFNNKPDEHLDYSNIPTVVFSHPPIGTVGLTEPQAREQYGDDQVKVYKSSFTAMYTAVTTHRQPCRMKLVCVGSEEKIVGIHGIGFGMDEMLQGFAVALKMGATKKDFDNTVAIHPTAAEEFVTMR
Protocol: as §2, §3

[7] = test system: P. aeruginosa PA7 (DSM 24068); test: microbe, parasite or virus in culture; type: cell-based, Pseudomonas aeruginosa; settings: n = 3, MHB
Summary of the method: as §1

[8] = test system: E. coli (DSM1116, ATCC 9637); test: microbe, parasite or virus in culture; type: cell-based, Escherichia coli
Summary of the method: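 Escherichia coli DSM1116 (ATCC 9637) was tested by broth microdilution in 96-well plates in duplicate, with compounds serially diluted from 64 to 1 μg/mL. Inocula of 2–8 × 10^5 CFU/mL were used in MHB (21 g/L Müller Hinton broth, pH 7.4), either alone or supplemented with tryptone (17 g/L) or yeast extract (3 g/L). After 22 h at 37 °C, absorbance at 600 nm was read. MIC and EC50 were obtained by curve fitting in Sigma Plot from three independent experiments, and ciprofloxacin served as the positive control.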

[9] = test system: S. aureus MRSA (DSM 11822, ICB 25701); test: microbe, parasite or virus in culture; type: cell-based, methicillin resistant S. aureus; settings: n = 3, TSY
Summary of the method: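 Broth microdilution in TSY (30 g/L trypticase soy broth, 3 g/L yeast extract, pH 7.0–7.2), inoculum 2–8 × 10^5 CFU/mL, compounds serially diluted 64 to 1 μg/mL, 22 h at 37 °C. Growth read as absorbance at 600 nm; MIC and EC50 obtained by curve fitting, three independent experiments.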

[10] = test system: K. pneumoniae (DSM 11678, ATCC33495); test: Broth microdilution antibacterial assay; type: cell-based, Klebsiella pneumoniae; settings: n = 3, MHB
Summary of the method: as §1

Chain of E. coli thioredoxin reductase (TrxR) (P0A9P4 whole entry): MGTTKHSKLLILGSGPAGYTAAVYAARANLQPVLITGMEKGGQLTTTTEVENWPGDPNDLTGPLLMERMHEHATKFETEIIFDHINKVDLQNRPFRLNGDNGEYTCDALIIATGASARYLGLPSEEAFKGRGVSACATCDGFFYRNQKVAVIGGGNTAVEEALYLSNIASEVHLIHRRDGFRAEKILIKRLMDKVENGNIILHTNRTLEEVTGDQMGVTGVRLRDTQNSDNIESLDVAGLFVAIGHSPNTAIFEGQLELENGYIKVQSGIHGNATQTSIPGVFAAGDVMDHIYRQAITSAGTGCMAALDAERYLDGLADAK

With `O=[N+]([O-])[O-].[Ag+]` [AgNO3, Silver nitrate, reference compound] the IC50 [1] was 0.054 ± 0.005 µM, the IC50 [2] was 0.033 ± 0.003 µM and the “MIC E. faecium” value ([3]; mean ± standard error, 22 h) was 94.1 ± 0.0 µM. The EC50 ([3]; mean ± standard error, read-out: EC50 E. faecium) was 75.9 ± 5.7 µM, the “MIC E. faecium (value in brackets)” value ([3]; 22 h) was 16 µg/mL and the “Molar conductivity ΛM” value ([4]; 1 h after dissolution) was 37.8 S cm^2 mol^–^1. The “Molar conductivity ΛM” value ([4]; 24 h after dissolution) was 38.1 S cm^2 mol^–^1, the “MIC A. baumannii” value ([5]; mean ± standard error, 22 h) was 5.9 ± 0.0 µM and the EC50 ([5]; mean ± standard error, read-out: EC50 A. baumannii) was 4.16 ± 0.4 µM. For the same molecule, the “MIC A. baumannii (value in brackets)” value ([5]; 22 h) was 1 µg/mL, the IC50 [6] was 0.031 ± 0.001 µM and the “MIC P. aeruginosa” value ([7]; mean ± standard error, 22 h) was 5.9 ± 0.0 µM. For the same molecule, the EC50 ([7]; mean ± standard error, read-out: EC50 P. aeruginosa) was 4.12 ± 0.4 µM, the “MIC P. aeruginosa (value in brackets)” value ([7]; 22 h) was 1 µg/mL and the “MIC E. coli DSM 1116 in MHB + tryptone” value ([8]; Müller-Hinton Broth with tryptone (17 g/L), ± SE) was 251.1 ± 62.8 µM. For the same molecule, the “MIC E. coli DSM 1116 in MHB + yeast extract” value ([8]; Müller-Hinton Broth with yeast extract (3 g/L), ± SE) was 123.6 ± 29.4 µM, the “MIC E. coli DSM 1116 in MHB” value ([8]; Müller-Hinton Broth without additive, ± SE) was 5.89 ± 0.0 µM and the EC50 ([8]; mean ± standard error, n = 3, MHB) was 4.87 ± 0.1 µM. For the same molecule, the “MIC E. coli” value ([8]; mean ± standard error, n = 3, MHB, 22 h) was 5.9 ± 0.0 µM, the “MIC E. coli (value in brackets)” value ([8]; n = 3, MHB, 22 h) was 1 µg/mL and the “MIC MRSA” value ([9]; mean ± standard error, 22 h) was 188 ± 0.0 µM. For the same molecule, the EC50 ([9]; mean ± standard error, read-out: EC50 MRSA) was 98.9 ± 6.4 µM, the “MIC MRSA (value in brackets)” value ([9]; 22 h) was 32 µg/mL and the “MIC K. pneumoniae” value ([10]; mean ± standard error, 22 h) was 5.9 ± 0.0 µM. The EC50 ([10]; mean ± standard error, read-out: EC50 K. pneumoniae) was 4.41 ± 0.5 µM and the “MIC K. pneumoniae (value in brackets)” value ([10]; 22 h) was 1 µg/mL.
